Data taken from article PMC4929710, “Specificity and mechanism of action of alpha-helical membrane-active peptides interacting with model and biological membranes by single-molecule force spectroscopy” (Scientific Reports, 2016).

Assays:
S. aureus ATCC25923 = format: cell-based; settings: ATCC25923, 24 h
Method: (§1) Then, 10 μL of peptides was added. […] All assays were repeated in triplicate.

S. epidermidis ATCC12228 = format: cell-based; settings: ATCC12228, 24 h
Method: as §1

[1] = system: gram-negative bacteria (P. aeruginosa and E. coli); format: cell-based
Method: as §1

E. coli ATCC25922 = format: cell-based; settings: ATCC25922, 24 h
Method: as §1

P. aeruginosa ATCC27853 = format: cell-based; settings: ATCC27853, 24 h
Method: as §1

A549 cells = format: cell-based, human; settings: 24 h
Method: (§2) The MTT cell proliferation assay was used to investigate the anticancer activity and cytotoxicity of MAPs against cancer cell lines (HeLa, A549, SGC-7901, and B16) and normal cells (3T3-L1), respectively. Cells (5 × 10^3) were seeded in 96-well plates and incubated overnight. The peptide samples were then added to cells with final concentrations ranging from 1 μM to 125 μM. After 24 h, 20 μL of 5 mg/mL MTT solution in PBS was added to the cells and treated for 4 h at 37 °C. The formazan crystals were dissolved by 150 μL of dimethyl sulfoxide (DMSO). Finally, the absorbance was determined at 492 nm. The results were expressed as IC50, representing the concentration at which cell viability was reduced by 50%. All assays were repeated in triplicate.

SGC7901 cells = format: cell-based, human; settings: 24 h
Method: as §2

HeLa cells = format: cell-based, human; settings: 24 h
Method: as §2

[2] = Circular dichroism (CD) analysis; format: physicochemical; settings: for α-Helix (%) 50% TFE / α-Helix (%) Benign: relative to molar ellipticity of A12L/A20L in 50% TFE; for [θ]222 Benign / [θ]222 50% TFE: CD, 25 °C; for [θ]222 Benign: benign buffer pH 7.0, 100 mM KCl, 50 mM KH2PO4/K2HPO4; for [θ]222 50% TFE: benign buffer:TFE 1:1 vol/vol; for α-Helix (%) Benign: benign buffer
Method: The secondary structures of the peptides were determined using a Jasco J-810 CD spectrometer (Jasco, Easton, MD) at 25 °C [12]. The benign buffer (pH 7.0, 100 mM KCl, 50 mM KH2PO4/K2HPO4) was used to simulate the hydrophilic environment and 50% 2,2,2-trifluoroethanol (TFE) (benign buffer: TFE = 1: 1, vol/vol) was used to simulate the hydrophobic environment. The mean residue molar ellipticities at 222 nm, [θ]222 (degree·cm^2·dmol^−1), were used to calculate the relative helical contents of MAPs[24].
CD spectroscopy illustrated the secondary structure of peptide analogs under benign environment and 50% TFE to mimic the hydrophobic conditions of cell membranes. CD results are shown in Supplementary Table S2 and Fig. S1. […] The helical content (%) of peptides in two groups relative to the molar ellipticity value of the peptide A12L/A20L in 50% TFE. In addition, except the peptide of V13E, the relative helicity of the peptides are in the same order of V13L>V13A>V13S>V13K and A12L/A20L>A20L>L6A>L6A/L17A in the benign and hydrophobic environments and also in the same order with the peptide hydrophobicity.

B16 cells = format: cell-based, mouse; settings: 24 h
Method: as §2

3T3-L1 cells = format: cell-based, mouse; settings: 24 h
Method: as §2

PC/Chol (8:1 w/w) LUVs = test: Tryptophan fluorescence with LUVs; format: binding; settings: PC/Chol (8:1 w/w) LUVs versus HEPES buffer, 25 °C
Excerpt: (§3) In order to investigate the interaction between peptides and difference types of cell membranes, three different LUVs were used to mimic a prokaryotic cell membrane (PC/PG), a normal eukaryotic cell membrane (PC/Chol), and a cancer cell membrane (PC/SM/PE/PS/Chol). Tryptophan residue in the peptide sequence was used as a fluorescent probe to examine the interaction of peptides with model membranes. […] For example, in the PC/PG (7:3 w/w) anionic prokaryotic mimicking model membrane, peptides V13L and A12L/A20L had the strongest hydrophobicity with blue shift values of approximately 37 nm and 38 nm, respectively. Conversely, peptide V13E with a negative charge of glutamic acid residue, and peptide L6A/L17A with the lowest hydrophobicity had blue shift values of approximately 18 nm and 17 nm, respectively. […] In addition, within PC/SM/PE/PS/Chol (4.35:4.35:1:0.3:1 w/w) as a cancer-mimicking model membrane, the same results could be obtained in that peptide hydrophobicity correlates with anticancer activity and the blue shift values of peptides.
(§4) In accordance with previously described methods, LUVs were prepared with PC/PG (7:3 w/w), PC/Chol (8:1 w/w), and PC/SM/PE/PS/Chol (4.35:4.35:1:0.3:1 w/w) to mimic prokaryotic cell, […], membranes, respectively. Lipids using the freeze-thaw method as described previously, followed by extrusion through […] double-stacked nuclepore filters using an Mini-Extruder (Avanti Polar Lipids, Inc.)[11][27].
(§5) Three kinds of LUVs were prepared and cultured in HEPES buffer (pH 7.4, 10 mM HEPES, 150 mM NaCl) and the molar concentration was adjusted to 100 μM. A total of 14 μL of 100 μM MAPs was mixed with 686 μL of 100 μM liposomes at 25 °C for 10 min. A Shimadzu RF-5301PC, (excitation wavelength of […], emission wavelength of 300–450 nm) was used to measure the tryptophan fluorescence. Potassium iodide (KI) as a quencher was added to the previous reaction system for a final concentration of 0.02–0.08 M, respectively. The experimental data were plotted according to the Stern–Volmer equation F0/F = 1 + Ksv[Q], where F0 and F are the fluorescence intensity in the absence or presence of a quencher at concentration [Q], respectively, and Ksv is the Stern–Volmer quenching constant.

[3] = system: PC/SM/PE/PS/Chol (4.35:4.35:1:0.3:1 w/w) LUVs; test: Tryptophan fluorescence with LUVs; format: binding; settings: PC/SM/PE/PS/Chol (4.35:4.35:1:0.3:1 w/w) LUVs versus HEPES buffer, 25 °C
Excerpt: as §3, §4, §5

PC/PG (7:3 w/w) LUVs = test: Tryptophan fluorescence with LUVs; format: binding; settings: PC/PG (7:3 w/w) LUVs versus HEPES buffer, 25 °C
Excerpt: as §3, §4, §5

[4] = RP-HPLC retention time (peptide hydrophobicity); format: physicochemical; settings: used as measure of peptide hydrophobicity
Method: All peptides were synthesized by solid-phase peptide synthesis using Fmoc (9-fluorenyl-methoxycar-bonyl) chemistry and rink amide 4-methylbenzhydrylamine resin (MBHA resin; 0.8 mmol/g), as described previously. The crude peptides were purified on a LC-6A preparative reversed-phase high performance liquid chromatography (RP-HPLC, Shimadzu, Kyoto, Japan) using a Zorbax 300 SB-C8 column (250 × 9.4 mm inner diameter, […] particle size, 300 Å pore size), as described previously. The purity of the peptides was characterized by analytical RP-HPLC, mass spectrometry, and amino acid analysis.

[5] = system: gram-positive bacteria (S. aureus and S. epidermidis); format: cell-based
Method: as §1

Row | Substance | G+ MIC S. aureus ATCC25923 (S. aureus ATCC25923) [µM] | G+ MIC S. epidermidis ATCC12228 (S. epidermidis ATCC12228) [µM] | G− MIC GM [1] [µM] | G− MIC E. coli ATCC25922 (E. coli ATCC25922) [µM] | G− MIC P. aeruginosa ATCC27853 (P. aeruginosa ATCC27853) [µM] | IC50 (A549 cells) [µM] | IC50 (SGC7901 cells) [µM] | IC50 (HeLa cells) [µM] | α-Helix (%) 50% TFE [2] [%] | [θ]222 Benign [2] [degree·cm^2·dmol^−1] | [θ]222 50% TFE [2] [degree·cm^2·dmol^−1] | α-Helix (%) Benign [2] [%] | IC50 (B16 cells) [µM] | IC50 (3T3-L1 cells) [µM] | PC/Chol Blue shift (PC/Chol (8:1 w/w) LUVs) [nm] | PC/SM/PE/PS/Chol Blueshift [3] [nm] | PC/PG Blue shift (PC/PG (7:3 w/w) LUVs) [nm] | tR (RP-HPLC retention time) [4] [min] | G+ MIC GM [5] [µM]
1 | Ac-KWKSFAKTFKSAKKTVLHTALKAISS-NH2 [Peptide L6A] | >125 | 64 | 89.44 | 64 | 125 | 92.4 | 78.9 | 94.7 | 70.67 | −3836.18 | −30626.20 | 8.85 | 74.7 | 87.3 | 1 | 23 | 19 | 36.053 | 
2 | Ac-KWKSFLKTFKSAAKTVLHTALKAISS-NH2 [Peptide V13A] | 8 | 2 | 5.66 | 4 | 8 | 6.83 | 2.33 | 5.52 | 79.68 | −6524.79 | −34527.20 | 15.06 | 3.62 | 6.79 | 4 |  | 34 | 47.337 | 4
3 | Ac-KWKSFLKTFKSASKTVLHTALKAISS-NH2 [Peptide V13S] | 8 | 4 | 8 | 8 | 8 | 12.1 | 4.27 | 12.2 | 71.30 | −4400.44 | −30899.20 | 10.15 | 5.61 | 17 | 3 |  | 27 | 43.038 | 5.66
